Measured values: paper PMC6973020, “Quinoline‐Conjugated Ruthenacarboranes: Toward Hybrid Drugs with a Dual Mode of Action” (Chemmedchem, 2019)

Columns and labels:
MCF‐7 cells = test: AO staining (acidic vacuoles, autophagy), MCF‐7; type: cell-based, human; settings: MCF‐7, 20 μM, 72 h
Description: Flow cytometry. For gaining better insights into the mechanisms of action of the ruthenium complexes, MCF‐7 and LN229 cells incubated with an IC50 dose of 3 or 4, were analyzed via flow cytometry. Several staining protocols were carried out in parallel, in independent experiments: i) AnnV/PI for the detection of apoptotic cell death, ii) AO for the detection of acidic vacuoles, iii) ApoStat for checking caspase activation, iv) CFSE for detecting interference with cellular proliferation, and v) DAPI for the detection of morphological signs of apoptosis. Untreated cells or cells treated only with BSA (control) were also measured, as reference for BSA‐free and BSA‐containing drug formulations, respectively. […] Channels FL1 (green emission), FL2 (orange emission) and/or FL3 (dark red emission) were used for fluorescence detection, according to the specific staining agent. Sideward Scatter (SSC) for MCF‐7 cells treated with 4 or BSA−4 was also analyzed, with respect to the control, for detection of shifts of cell granularity. […]
FCS, 2 mM L‐glutamine, 0.01% sodium pyruvate and antibiotics, at 37 °C in a humidified atmosphere with 5% CO2. […] Cells were counted and seeded in 96‐well plates and incubated overnight, as described above. […]
Staining Protocols for Flow Cytometric Analysis. […] Finally, cells were washed in PBS, resuspended in PBS (or AnnV‐binding buffer for AnnV/PI), and analysed. […]

A375 human skin melanoma = test: Crystal violet (CV) cell viability assay, A375; type: cell-based; settings: 72 h
Excerpt: (§1) Thus, care must be taken when comparing their biological activities with those of our previous studies, even with the same cell line, because the covalent vs. non‐covalent combination of drugs might imply different mechanisms of action in the cell.44 Here, we studied the in vitro activity of ruthenacarborane 3, i. e. free acid, and its 8‐hydroxyquinolyl (4) and 4‐{(7‐chloroquinolin‐4‐yl)oxy}butanol‐1‐yl (5) esters, against a panel of cancer cell lines (B16 mouse melanoma, A375 human skin melanoma, MCF‐7 human breast adenocarcinoma, LN229 human glioblastoma, U251 human glioma). Human fibroblast cell line MRC‐5, murine microglial cell line BV‐2 as well as peritoneal exudate cells (Mph), were chosen as models for non‐malignant cells. […] On the other side, we wanted to assess the reproducibility of the viability data, under either controlled (with BSA) or uncontrolled (without BSA) conditions, in two sets of independent assays. […] Cells were exposed to 3–5 for 72 h, after which cell viability was determined via 3‐(4,5‐dimethylthiazol‐2‐yl)‐2,5‐diphenyltetrazolium bromide (MTT) and crystal violet (CV) assays, in parallel (Table 2). Cisplatin was also tested as reference.
(§2) Preparation of drug solutions. […] Stock solution of cisplatin was prepared in DMF (10 mM) immediately before use. A stock solution of BSA in PBS was prepared at 1.28 mM concentration, and stored at 4 °C in the dark. […] Alternatively, 3 or 4 (DMSO stock solution) were added to the BSA solution in PBS, always with a 10 : 1 molar ratio of BSA to ruthenacarborane. The BSA−ruthenacarborane solutions were incubated 0.5–1 h at room temperature, then diluted with cell culture medium to the desired final concentrations. Final concentrations of 3 and 4 were the same as for the BSA‐free formulation. Final DMSO was 0.02–0.5 vol %.
(§3) Colorimetric assays for cellular viability. […] For counting the number of attached (viable) cells, cells were fixed with 4 % (w/v) paraformaldehyde for 10 min at room temperature, and subsequently stained for 15 min with […] crystal violet (CV) solution. Cells were then washed with tap water, dried in air, and the CV dye was dissolved in 33 % (w/v) acetic acid solution. For the detection of mitochondrial respiration, cells were cultivated in MTT staining solution (0.5 mg mL^−1) for approximately 1 h. The dye was then discarded, and the formed formazan (purple) was dissolved in DMSO. The absorbance was measured with an automated microplate reader at λmax 540 nm, with the reference λmax 670 nm. Untreated cells or cells treated only with BSA (control) were also measured, as reference for BSA‐free and BSA‐containing drug formulations, respectively. […] Cell viability is expressed as percentage (%) relative to control (untreated cultures).58 Experiments were run in three independent replicates. […]

[1] = test system: MCF‐7 human breast adenocarcinoma; test: MTT cell viability assay, MCF‐7; type: cell-based; settings: 72 h
Excerpt: as §1, §2, §3

U251 human glioma = test: Crystal violet (CV) cell viability assay, U251; type: cell-based; settings: CV assay, 72 h; read-out: IC50 U251
Excerpt: as §1, §2
Colorimetric assays for cellular viability. […] For counting the number of attached (viable) cells, cells were fixed with 4 % (w/v) paraformaldehyde for 10 min at room temperature, and subsequently stained for 15 min with […] crystal violet (CV) solution. Cells were then washed with tap water, dried in air, and the CV dye was dissolved in 33 % (w/v) acetic acid solution. For the detection of mitochondrial respiration, cells were cultivated in MTT staining solution (0.5 mg mL^−1) for approximately 1 h. The dye was then discarded, and the formed formazan (purple) was dissolved in DMSO. The absorbance was measured with an automated microplate reader at λmax 540 nm, with the reference λmax 670 nm. Untreated cells or cells treated only with BSA (control) were also measured, as reference for BSA‐free and BSA‐containing drug formulations, respectively. For determination of the role of autophagy specific inhibitors, CQ or 3‐MA, were applied at a concentration of 20 μM and 0.5 mM, respectively, and the cells were stained with CV dye. Cell viability is expressed as percentage (%) relative to control (untreated cultures).58 Experiments were run in three independent replicates. […] Non‐linear regression analyses of the obtained results was done using GraphPad Prism software to calculate IC50 values.
mouse microglial cell line BV‐2 was a kind gift from Dr. Irena Lavrnja, Institute for Biological Research
“Siniša Stanković” (University of Belgrade).

Substance | autophagy (AO staining) (MCF‐7 cells) | IC50 (A375 human skin melanoma) [µM] | IC50 [1] [µM] | IC50 (U251 human glioma) [µM]
closo ‐[3‐(η^6‐p‐Cymene)‐1‐(quinolin‐8‐yl‐acetate)‐3,1,2‐RuC2B9H10] [Compound 4] | suppressed autophagy | 14.9 ± 2.1 | 15.9 ± 0.2 | 45.1 ± 0.8
closo‐ [Compound 3, closo‐ [3‐(η^6‐p‐Cymene)‐1‐(CH2COOH)‐3,1,2‐RuC2B9H10]] | strongly amplified autophagic processes | 18.7 ± 1.8 | 7.7 ± 0.8 | > 100
